Test results as given in patent US7592326B2, “Method for stimulating the immune, inflammatory or neuroprotective response” (priority 2004, dated 2009).
Marks after values point to notes of the source that are not given here.

Assays:
[1] = system: autologous or allogeneic PBMC; test: Mixed leukocyte reaction with irradiated DCs ([3H]thymidine incorporation); format: cell-based, human; details: 100 μM c-di-GMP-treated immature DCs
Procedure: DCs were stimulated for 24 h with c-di-GMP or LPS and were then extensively washed and suspended in RPMI 1640 supplemented with 10% human serum, L-glutamine, and penicillin/streptomicin, irradiated (3,000 rad from a ^137Cs source) and added in graded doses to 1×10^5 responder T cells in 96 flat-bottom microplates. Responder cells were autologous or allogeneic PBMC. After 5 days, cultures were pulsed for 18 h with 0.5 µCi/well of [^3H]thymidine. Cells were then harvested onto glass fiber filters, and [^3H]thymidine incorporation was measured by liquid scintillation spectroscopy.

[2] = system: p38 MAPK; test: Western blot signaling in human DCs: p38 MAPK; format: cell-based; details: 5 and 20 min treatment, FIG. 13A
Procedure: (§1) Human PBMC were isolated by Ficoll density gradient centrifugation from leukopacks supplied by the Department of Transfusion Medicine (Clinical Center, National Institute of Health, Bethesda, Md.). Monocytes were purified (>95%) from human PBMC with MACS CD14 monocyte isolation kit (Miltenyi Biotech Inc., Auburn, Calif.) according to the manufacturer's instruction. DCs were generated as described previously (Yang et al., 2001). In brief, DCs were generated by incubating purified monocytes at 2×10^5/ml in RPMI 1640 containing 10% FBS, 2 mM glutamine, 25 mM HEPES, 100 U/ml penicillin, 100 ug/ml streptomycin, 50 ng/ml recombinant human GM-CSF (PeproTech, Rocky Hill, N.J.), and 50 ng/ml recombinant human IL-4 (PeproTech) at 37° C. in a CO2 (5%) incubator for 7 days. On day 3 and 5 of the incubation, half of the culture medium was replaced with pre-warmed (37° C.) fresh GM-CSF- and IL-4-containing medium. On day 7, DCs were collected, washed three times with PBS, and serum-starved for 8 hours by incubating in serum-free RPMI-1640 containing GM-CSF and IL-4 (2×10^5/ml) at 37° C. in a CO2 (5%) incubator. Subsequently, DCs (2×10^6/sample) were incubated at 37° C. in the absence or presence of c-di-GMP or GMP (Sigma, St. Louis, Mo.) at concentrations specified for 5 or 30 minutes. […]

[3] = system: NF-κB; test: Western blot signaling in human DCs: NF-κB (I-κBα degradation); format: cell-based; details: up to 30 min
Procedure: as §1

[4] = system: lung leukocytes; test: Lung leukocyte accumulation in Klebsiella-infected mice (lung digest, flow cytometry); format: in vivo, Balb/c mice
[5] = system: S. pneumoniae strain D39; test: Mouse pneumococcal pneumonia (proposed); format: in vivo; details: 200 nmol 24- and 48 hours prior; 1×10^5 CFU D39
[6] = system: PR8 followed by D39 or NCH57; test: Secondary bacterial pneumonia following influenza infection in mice (proposed); format: in vivo; details: 200 nmol/animal 24- and 48 hours prior to bacterial challenge
Procedure: To show the effect of c-di-GMP secondary bacterial pneumonia following influenza infection, groups of 6 mice are infected with 100 TCID50 of PR8 and challenged 7 days later with either 1000 CFU of D39, or 1×10^7 CFU of NCH57 and followed twice daily for weight loss, development of secondary bacterial infections by bioluminescent imaging, and mortality. One group of mice is treated with c-di-GMP 24- and 48 hours (e.g., orally, intransal, i.p, s.q. i.m.) prior to bacterial challenge with 200 nmol/animal.

[7] = system: C. albicans; test: Candidiasis of oral mucosal surfaces and intestinal tract in mice (proposed); format: in vivo, Candida albicans; details: C. albicans in drinking water
Excerpt: Dissemination to livers occurs and is 100% on days 5 to 15. The median kidney or liver CFU were 2 or 3 log10 CFU, respectively, on day 15; despite this, mortality was low through 21 days of infection.

[8] = pH 10
[9] = system: S. aureus; details: cited from earlier work

For Nc1nc(=O)c2ncn([C@@H]3OC4COP(=O)(O)O[C@H]5[C@@H](O)[C@H](n6cnc7c(=O)nc(N)[nH]c76)O[C@@H]5COP(=O)(O)OC4C3O)c2[nH]1 (stereo partly drawn) [c-di-GMP, Bis(3′→5′)-cyclic diguanylic acid], the “autologous T cell proliferation, increase compared to untreated DCs” value ([1]; FIG. 4A) was “five-fold”, the “heterologous T cell proliferation, increase compared to untreated DCs” value ([1]; FIG. 4B) was “two-fold” and the “activation of p38 MAPK (phospho-p38)” value [2] was “activated”. For the same compound, the “activation of NF-κB (I-κBα degradation)” value [3] was “did not activate”, the “increase in the number of neutrophils in the lungs of infected mice vs control-pretreated” value ([4]; 48 hr post infection, p<0.01) was 3 fold and the “total number of lung leukocytes vs control-pretreated” value ([4]; 48 hr post infection, p<0.01) was “significant increase”. The “Total number lung cells” value ([4]; i.n. pretreatment 48 and 24 hr prior, lung digests 48 hrs after K. pneumoniae (kp), uninfected 2.7 × 10^7) was 4.67 × 10^7*, the “trafficking of myeloid or plasmacytoid DC to the lung in response to bacterial challenge” value ([4]; i.n., data not shown) was “did not alter” and the “αβTcr^+, CD69^+” value ([4]; lung digests 48 hrs after kp, uninfected 0.33 × 10^5) was 3.7 × 10^5*. For the same compound, the “DX5^+, CD69^+” value ([4]; lung digests 48 hrs after kp, uninfected 0.78 × 10^5) was 5.98 × 10^5**, the PMN ([4]; lung digests 48 hrs after kp, uninfected 0.8 × 10^6) was 22 × 10^6** and the “DX5^+ (NK)” value ([4]; lung digests 48 hrs after kp, uninfected 1.3 × 10^6) was 3.8 × 10^6. For the same compound, the “DX5^+, αβγδTcr^+(NK T^+)” value ([4]; lung digests 48 hrs after kp, uninfected 1.6 × 10^5) was 6.8 × 10^5*, the Mono/Macrophage ([4]; lung digests 48 hrs after kp, uninfected 2.3 × 10^7) was 1.9 × 10^7 and the “αβTcr^+” value ([4]; lung digests 48 hrs after kp, uninfected 2.6 × 10^6) was 5.5 × 10^6**. For the same compound, the “bacterial counts in the lungs” value [5] was “decreased bacterial counts”, the survival [6] was “greater survival” and the “mucosal infection and dissemination compared to untreated controls” value [7] was “reduce mucosal infection”. For the same compound, the “stability at physiological conditions” value [8] was “stable”, the “colonization of the mouse mammary glands by S. aureus” value ([9]; intramammary, at time of challenge and 4 h post-inoculation) was “significantly decreased” and the “in-vivo dose giving maximal benefit” value ([9]; previously published studies) was 200 nmoles/animal.
